Assay results taken from patent US7138361B2, “Herbicidal heterocycles” (E. I. du Pont de Nemours and Company, priority 2000, dated 2006).

Legend:
Assay type in all cases: in vivo
[1] = tested on: Surinam grass (Brachiaria decumbens); assay: Test B postemergence; conditions: 13 to 15 days
In short: (§1)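 Greenhouse test: chemicals are formulated in a surfactant-containing non-phytotoxic solvent and applied either preemergence to planted seeds or postemergence to plants 2 to 18 cm tall. Response is rated visually versus controls after 13 to 15 days, 0 meaning no effect and 100 complete control.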

[2] = tested on: barnyardgrass (Echinochloa crus-galli); assay: Test B postemergence; conditions: 13 to 15 days
In short: as §1

[3] = tested on: blackgrass (Alopecurus myosuroides); assay: Test B postemergence; conditions: 13 to 15 days
In short: as §1

[4] = tested on: cocklebur (Xanthium strumarium); assay: Test B postemergence; conditions: 13 to 15 days
In short: as §1

corn (Zea mays) [5] = assay: Test B postemergence; conditions: 13 to 15 days
In short: as §1

[6] = tested on: crabgrass (Digitaria sanguinalis); assay: Test B postemergence; conditions: 13 to 15 days
In short: as §1

[7] = tested on: giant foxtail (Setaria faberii); assay: Test B postemergence; conditions: 13 to 15 days
In short: as §1

[8] = tested on: lambsquarters (Chenopodium album); assay: Test B postemergence; conditions: 13 to 15 days
In short: as §1

[9] = tested on: morning glory (Ipomoea hederacea); assay: Test B postemergence; conditions: 13 to 15 days
In short: as §1

[10] = tested on: pigweed (Amaranthus retroflexus); assay: Test B postemergence; conditions: 13 to 15 days
In short: as §1

[11] = tested on: velvetleaf (Abutilon theophrasti); assay: Test B postemergence; conditions: 13 to 15 days
In short: as §1

[12] = tested on: wheat (Triticum aestivum); assay: Test B postemergence; conditions: 13 to 15 days
In short: as §1

wild oat (Avena fatua) = assay: Test B postemergence; conditions: 13 to 15 days
In short: as §1

[13] = tested on: Surinam grass (Brachiaria decumbens); assay: Test B preemergence
In short: as §1

[14] = tested on: barnyardgrass (Echinochloa crus-galli); assay: Test B preemergence
In short: as §1

[15] = tested on: cocklebur (Xanthium strumarium); assay: Test B preemergence; conditions: Preemergence, Rate 500 g/ha; scale 0 to 100, 0 no effect, 100 complete control
In short: as §1

corn (Zea mays) [16] = assay: Test B preemergence
In short: as §1

[17] = tested on: crabgrass (Digitaria sanguinalis); assay: Test B preemergence
In short: as §1

[18] = tested on: giant foxtail (Setaria faberii); assay: Test B preemergence
In short: as §1

[19] = tested on: lambsquarters (Chenopodium album); assay: Test B preemergence
In short: as §1

[20] = tested on: morning glory (Ipomoea hederacea); assay: Test B preemergence
In short: as §1

[21] = tested on: pigweed (Amaranthus retroflexus); assay: Test B preemergence
In short: as §1

rice (Oryza saliva) [22] = assay: Test B preemergence
In short: as §1

[23] = tested on: velvetleaf (Abutilon theophrasti); assay: Test B preemergence
In short: as §1

[24] = tested on: barnyardgrass (Echinochloa crus-galli); assay: Test B flooded paddy test; conditions: Rate 1000 g/ha, scale of 0 to 100 where 0 is no effect and 100 is complete control, visually evaluated after 13 to 15 days
In short: (§2)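 Visual injury score on a 0–100 scale, where 100 means complete control, assigned against untreated controls 13 to 15 days after plants at the 2-leaf stage were treated under flooded paddy conditions.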

[25] = tested on: duck salad (Heteranthera limosa); assay: Test B flooded paddy test; conditions: Rate 1000 g/ha, scale of 0 to 100 where 0 is no effect and 100 is complete control, visually evaluated after 13 to 15 days
In short: as §2

rice (Oryza saliva) [26] = assay: Test B flooded paddy test; conditions: Rate 1000 g/ha, scale of 0 to 100 where 0 is no effect and 100 is complete control, visually evaluated after 13 to 15 days
In short: as §2

[27] = tested on: smallflower flatsedge (Cyperus difformis); assay: Test B flooded paddy test; conditions: Rate 1000 g/ha, scale of 0 to 100 where 0 is no effect and 100 is complete control, visually evaluated after 13 to 15 days
In short: as §2

[28] = tested on: barnyardgrass (Echinochloa crus-galli); assay: Test C flooded paddy test; conditions: for Barnyardgrass plant response rating: Flooded Paddy, scale 0 to 100, 0 no effect, 100 complete control; for Plant response rating, Barnyardgrass: flooded paddy test, scale 0 to 100 (0 no effect, 100 complete control)
In short: (§3)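 Plants were grown to the 2-leaf stage under flooded paddy conditions and treated. They were then kept in a greenhouse for 12 to 14 days and visually rated against untreated controls on a 0–100 scale, where 0 is no effect and 100 is complete control.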

[29] = tested on: duck salad (Heteranthera limosa); assay: Test C flooded paddy test; conditions: for Ducksalad plant response rating: Flooded Paddy, scale 0 to 100, 0 no effect, 100 complete control; for Plant response rating, Ducksalad: flooded paddy test, scale 0 to 100 (0 no effect, 100 complete control)
In short: as §3

rice (Oryza saliva) [30] = assay: Test C flooded paddy test; conditions: for Rice plant response rating: Flooded Paddy, scale 0 to 100, 0 no effect, 100 complete control; for Plant response rating, Rice: flooded paddy test, scale 0 to 100 (0 no effect, 100 complete control)
In short: as §3

[31] = tested on: smallflower flatsedge (Cyperus difformis); assay: Test C flooded paddy test; conditions: for Flatsedge plant response rating: Flooded Paddy, scale 0 to 100, 0 no effect, 100 complete control; for Plant response rating, Flatsedge: flooded paddy test, scale 0 to 100 (0 no effect, 100 complete control)
In short: as §3

[32] = Rate 125 g/ha, scale 0 (no effect) to 100 (complete control)
[33] = Rate 500 g/ha, scale 0 to 100, 0 is no effect, 100 is complete control
[34] = Preemergence, Rate 500 g/ha, scale 0 to 100, 0 no effect, 100 complete control
[35] = preemergence, Rate 125 g/ha, scale of 0 to 100 where 0 is no effect and 100 is complete control, 13 to 15 days

Cc1cc(N2CCC(n3ccc(C(C)(C)C)n3)C2=O)ccc1Cl (stereo not shown) [Compound 53]
Plant response rating, Surinam grass [1, 32]: 0 | Plant response rating, Surinam grass [1, 33]: 0 | Plant response rating, Barnyardgrass [2, 32]: 0 | Plant response rating, Barnyardgrass [2, 33]: 0 | Plant response rating, Blackgrass [3, 32]: 0 | Plant response rating, Blackgrass [3, 33]: 0 | Plant response rating, Cocklebur [4, 32]: 0 | Plant response rating, Cocklebur [4, 33]: 0 | Plant response rating, Corn (corn (Zea mays) [5]; [32]): 0 | Plant response rating, Corn (corn (Zea mays) [5]; [33]): 10 | Plant response rating, Crabgrass [6, 32]: 0 | Plant response rating, Crabgrass [6, 33]: 0 | Plant response rating, Foxtail, Giant [7, 32]: 0 | Plant response rating, Foxtail, Giant [7, 33]: 0 | Plant response rating, Lambsquarters [8, 32]: 40 | Plant response rating, Lambsquarters [8, 33]: 80 | Plant response rating, Morningglory [9, 32]: 0 | Plant response rating, Morningglory [9, 33]: 10 | Plant response rating, Pigweed [10, 32]: 80 | Plant response rating, Pigweed [10, 33]: 90 | Plant response rating, Velvetleaf [11, 32]: 0 | Plant response rating, Velvetleaf [11, 33]: 0 | Plant response rating, Wheat [12, 32]: 0 | Plant response rating, Wheat [12, 33]: 0 | Plant response rating, Wild Oat (wild oat (Avena fatua); [32]): 0 | Plant response rating, Wild Oat (wild oat (Avena fatua); [33]): 0 | Plant response rating, Surinam grass [13, 34]: 0 | Plant response rating, Surinam grass [13, 35]: 0 | Plant response rating, Barnyardgrass [14, 34]: 90 | Plant response rating, Barnyardgrass [14, 35]: 0 | Plant response rating, Cocklebur [15]: 0 | Plant response rating, Corn (corn (Zea mays) [16]; [34]): 0 | Plant response rating, Corn (corn (Zea mays) [16]; [35]): 0 | Plant response rating, Crabgrass [17, 34]: 0 | Plant response rating, Crabgrass [17, 35]: 0 | Plant response rating, Foxtail, Giant [18, 34]: 0 | Plant response rating, Foxtail, Giant [18, 35]: 0 | Plant response rating, Lambsquarters [19, 34]: 100 | Plant response rating, Lambsquarters [19, 35]: 100 | Plant response rating, Morningglory [20, 34]: 0 | Plant response rating, Morningglory [20, 35]: 0 | Plant response rating, Pigweed [21, 34]: 100 | Plant response rating, Pigweed [21, 35]: 100 | Plant response rating, Rice (rice (Oryza saliva) [22]; [34]): 0 | Plant response rating, Rice (rice (Oryza saliva) [22]; [35]): 0 | Plant response rating, Velvetleaf [23, 34]: 0 | Plant response rating, Velvetleaf [23, 35]: 0 | Plant response rating, Barnyardgrass [24]: 100 | Plant response rating, Ducksalad [25]: 30 | Plant response rating, Rice (rice (Oryza saliva) [26]): 20 | Plant response rating, Flatsedge [27]: 90 | Barnyardgrass plant response rating ([28]; Rate 250 g/ha): 70 | Barnyardgrass plant response rating ([28]; Rate 500 g/ha): 100 | Plant response rating, Barnyardgrass ([28]; Rate 62 g/ha): 20 | Plant response rating, Barnyardgrass ([28]; Rate 125 g/ha): 30 | Ducksalad plant response rating ([29]; Rate 250 g/ha): 50 | Ducksalad plant response rating ([29]; Rate 500 g/ha): 60 | Plant response rating, Ducksalad ([29]; Rate 62 g/ha): 20 | Plant response rating, Ducksalad ([29]; Rate 125 g/ha): 40 | Rice plant response rating (rice (Oryza saliva) [30]; Rate 250 g/ha): 0 | Rice plant response rating (rice (Oryza saliva) [30]; Rate 500 g/ha): 0 | Plant response rating, Rice (rice (Oryza saliva) [30]; Rate 62 g/ha): 0 | Plant response rating, Rice (rice (Oryza saliva) [30]; Rate 125 g/ha): 0 | Flatsedge plant response rating ([31]; Rate 250 g/ha): 90 | Flatsedge plant response rating ([31]; Rate 500 g/ha): 100 | Plant response rating, Flatsedge ([31]; Rate 62 g/ha): 80 | Plant response rating, Flatsedge ([31]; Rate 125 g/ha): 90
